# Experimental data from PubChem BioAssay AID1996.
# Conditions: buffer; pH 7.4; 200.0 µM
row,SMILES,solubility kinetic [µg/mL]
1,Cc1ccc(C(=O)N2CCn3c(C)ccc3C2C)cc1 (centres undefined),23.1
2,CCOC(=O)c1c(C)[nH]c(C(=O)OCc2ccc(C)cc2)c1C,3.2
3,Cc1ccc(-c2csc3nc[nH]c(=O)c23)cc1C,6.6
4,COc1ccc(CCC(=O)NCc2ccccc2Cl)cc1OC,> 50.1
5,CCCOc1ccc(/C=C/c2c([N+](=O)[O-])c(=O)n(C)c(=O)n2C)cc1,< 0.2
6,CC(=O)CCc1oc2c([N+](=O)[O-])cccc2c1-c1ccc(C)o1,2.8
7,COc1cc(NC(=O)N[C@@H](CCSC)C(=O)O)cc(OC)c1,> 49.3
8,CCC(CC)C(=O)c1c[nH]c(C(=O)OC)c1,> 33.5
9,CC(=O)Nc1cc(NC(C)=O)cc(-c2nc3ccccc3[nH]2)c1,> 46.3
10,N#C/C=C/N1CCC(Cc2ccccc2)CC1,29.6
11,N#Cc1ccccc1OCC(=O)Nc1ccc(S(=O)(=O)N2CCOCC2)cc1,6.9
12,Cn1c(CCNC(=O)c2ccco2)nc2cc([N+](=O)[O-])ccc21,43.1
13,Cc1ccc(CN2CCCN(Cc3ccc(C)cc3)S2(=O)=O)cc1,< 0.4
14,Cc1cc(C)c(S(=O)(=O)c2cc(F)ccc2C)c(=O)[nH]1,13.3
15,O=C(CCc1ccccc1)NCc1ccncc1,> 36
16,COc1cccc(OCC(=O)Nc2ccccc2-c2ccccc2)c1,1.5
17,CC(Nc1ccc2c(c1)OCCO2)C(=O)N1c2ccccc2CC1C (centres undefined),> 50.8
18,COc1ccc(CNC(=O)C2CC(C)=CCC2C(=O)O)cc1 (centres undefined),> 45.5
19,CC(C)c1ccc(N(CC(=O)N2CCOCC2)S(C)(=O)=O)cc1,32.9
20,CN(Cc1cccc(F)c1)C(=O)c1ccc(S(=O)(=O)N2CCCCCC2)cc1,25.4

row,SMILES,solubility kinetic [µg/mL]
1,C=CCc1c(N(CC)CC)nc(C)[nH]c1=O,> 33.2
2,CC(C)c1ccc(/C=C/C(=O)NCc2ccc(S(N)(=O)=O)cc2)cc1,5.1
3,COc1cc(Br)c(CC(=O)NC2CC2)cc1OC,> 47.1
4,Cc1ccc(NC(=O)c2cccnc2)c([N+](=O)[O-])c1,> 38.6
5,O=C(CC12CC3CC(CC(C3)C1)C2)NCc1ccccc1,0.6
6,Cc1ccc(/C=N/NC(=O)c2cccnc2)o1,> 34.4
7,COc1ccc(C(=O)Nc2ccc3ncccc3c2)cc1,12.1
8,C#CCOc1ccc2c(c1)c(C(C)=O)c(C)n2Cc1ccccc1,1
9,COc1ccc(NC(=O)c2cc(-c3ccco3)nc3ccccc23)cc1,< 0.4
10,Cc1ccc(NC(=O)CN2C(=O)NC3(CCCc4ccccc43)C2=O)c([N+](=O)[O-])c1 (centres undefined),36.5
11,COc1ccc(CNC(=O)C2CCN(C(=O)c3ccccc3)CC2)cc1,> 52.9
12,COc1ccc(-c2noc(CN(C)C(=O)c3ccoc3C)n2)cc1,40.6
13,CCC(=Nc1cccc(C(F)(F)F)c1)c1c(O)n(C)c(=O)n(C)c1=O,6.4
14,C=CCN(CC(=O)O)S(=O)(=O)c1ccccc1C(F)(F)F,> 48.5
15,CCN(CC)P(=O)(c1nccn1C)N(CC)CC,40.7
16,CN1CCN(c2nc3ccccn3c(=O)c2C=C(C#N)C#N)CC1,48
17,COc1cc(C(=O)OC(C)C(=O)Nc2ccc3c(c2)OCCO3)cc(OC)c1OC (centres undefined),7.2
18,CN1C2CCC1CC(NS(=O)(=O)c1ccc(C#N)cc1)C2 (centres undefined),45.6
19,CCc1ccccc1NC(=O)N1CCc2ccccc21,6.1
20,CCC1CCc2sc(C(=O)N3CCCN(C)CC3)cc2C1 (centres undefined),37.5

row,SMILES,solubility kinetic [µg/mL]
1,Cc1cc(C(=O)Nc2ccc(F)c(Cl)c2)on1,18.3
2,COc1cccc(NC(=O)COC(=O)/C=C/c2ccco2)c1,30.5
3,COc1ccc(-c2ncncc2-c2ccc(OC)c(OC)c2)c(O)c1,> 50.8
4,COc1ccc(NC(=O)/C(C#N)=C/c2ccc(-c3ccccc3C(=O)O)o2)cc1,> 58.3
5,Cc1ccc(N2C(=O)C3C4C=CC(CC4)C3C2=O)cc1[N+](=O)[O-] (centres undefined),23.4
6,Cc1ccc(C)n1CCN1CCN(C(=O)CC#N)CC1,> 41.2
7,N#CCCN(C(=O)CN1CCN(S(=O)(=O)c2ccc(Cl)s2)CC1)c1ccc(F)cc1,> 70.6
8,COC(=O)c1ccc(NC(=O)C2CCCN(S(C)(=O)=O)C2)cc1 (centres undefined),31.8
9,CC1(c2ccccc2Cl)NC(=O)N(CC(=O)N2CCc3ccccc32)C1=O (centres undefined),10.1
10,CCOc1ncccc1C(=O)Nc1nnc(C2CC2)s1,> 43.6
11,O=C(Nc1ccc2[nH]ccc2c1)c1ccccc1,31.9
12,N#Cc1c(-c2cccs2)cc(-c2cccs2)[nH]c1=O,0.7
13,O=[N+]([O-])c1ccccc1OCCOc1ccccc1[N+](=O)[O-],< 0.3
14,O=C(Nc1ccccc1)/C(=C/c1ccccc1)NC(=O)c1ccco1,1.2
15,CN(Cc1ccccc1F)c1ncnc2sccc12,33.7
16,Fc1ccc(CN2CCCN(C(=S)Nc3ccc(F)cc3)CC2)cc1,> 54.2
17,CCOCCCNc1ccc(N2C(=O)CCCC2=O)cc1[N+](=O)[O-],> 50.3
18,N#CCCN(C(=O)COC(=O)c1ccc(S(=O)(=O)N2CCOCC2)cc1)c1ccccc1,8.2
19,NS(=O)(=O)c1ccc(NC(=O)Nc2ccc(C(F)(F)F)cc2)cc1,< 0.3
